Where two headings read alike, the source gives them in different places. Where only a bound is given, the exact number is not on record here.

The target of one assay is T1, IKKε (Homo sapiens, UniProt Q14164).
T1 sequence (Q14164 1-716): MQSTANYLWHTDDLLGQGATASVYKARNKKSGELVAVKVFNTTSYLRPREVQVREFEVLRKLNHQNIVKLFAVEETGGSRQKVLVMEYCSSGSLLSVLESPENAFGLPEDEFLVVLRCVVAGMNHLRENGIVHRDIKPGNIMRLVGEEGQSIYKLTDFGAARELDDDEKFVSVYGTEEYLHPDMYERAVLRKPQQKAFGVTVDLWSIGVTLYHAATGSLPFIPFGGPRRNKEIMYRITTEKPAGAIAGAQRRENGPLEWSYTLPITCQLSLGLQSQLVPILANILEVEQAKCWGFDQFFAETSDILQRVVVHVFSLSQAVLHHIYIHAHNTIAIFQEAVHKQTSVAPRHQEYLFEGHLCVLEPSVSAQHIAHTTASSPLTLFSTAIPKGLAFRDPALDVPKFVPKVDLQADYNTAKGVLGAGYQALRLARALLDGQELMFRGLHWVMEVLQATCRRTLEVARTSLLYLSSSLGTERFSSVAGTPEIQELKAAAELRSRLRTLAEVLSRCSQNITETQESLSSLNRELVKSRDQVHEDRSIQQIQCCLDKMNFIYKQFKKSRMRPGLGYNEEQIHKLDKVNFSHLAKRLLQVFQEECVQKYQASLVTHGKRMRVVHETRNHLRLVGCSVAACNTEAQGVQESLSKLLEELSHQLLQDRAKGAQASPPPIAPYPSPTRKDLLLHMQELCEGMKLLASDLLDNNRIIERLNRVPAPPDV
The assay can be described thus: IKKε biochemical assay. The note with it: 30 uM top concentration, 90 min at 25° C., LabChip EZ Reader II. As to the method: (§1) Test compounds were transferred into Labcyte polypropylene 384 well plates (P055-25) and diluted to 3 mM using DMSO. […] 100 uM of a reference compound (1 uM final high concentration). Backfilling was performed if necessary so that all wells contain 1% DMSO final:
add 75 nl DMSO/well into columns 1, 2 and 24 using Labcyte Echo. add 75 nl 1.0 mM staurosporine/well into column 23 using Labcyte Echo (10 uM final) add 4.5 ul enzyme/well using multidrop dispenser add 3 ul substrate/well using multidrop dispenser incubate at 25° C. for 90 min. add 7.5 ul 2× stop buffer read on labchip ez reader II using IKKε.
(§2) Raw data files were opened in the Caliper LabChip Reviewer program (Version 3.0.265.0 SP2) and peak assignments were adjusted to reflect “substrate first” with the software's post-run analysis options. A spline-fit baseline was applied using the software's analysis algorithm.

The target of another assay is T2, TBK1 (Homo sapiens, UniProt Q9UHD2).
T2 sequence (Q9UHD2 1-729): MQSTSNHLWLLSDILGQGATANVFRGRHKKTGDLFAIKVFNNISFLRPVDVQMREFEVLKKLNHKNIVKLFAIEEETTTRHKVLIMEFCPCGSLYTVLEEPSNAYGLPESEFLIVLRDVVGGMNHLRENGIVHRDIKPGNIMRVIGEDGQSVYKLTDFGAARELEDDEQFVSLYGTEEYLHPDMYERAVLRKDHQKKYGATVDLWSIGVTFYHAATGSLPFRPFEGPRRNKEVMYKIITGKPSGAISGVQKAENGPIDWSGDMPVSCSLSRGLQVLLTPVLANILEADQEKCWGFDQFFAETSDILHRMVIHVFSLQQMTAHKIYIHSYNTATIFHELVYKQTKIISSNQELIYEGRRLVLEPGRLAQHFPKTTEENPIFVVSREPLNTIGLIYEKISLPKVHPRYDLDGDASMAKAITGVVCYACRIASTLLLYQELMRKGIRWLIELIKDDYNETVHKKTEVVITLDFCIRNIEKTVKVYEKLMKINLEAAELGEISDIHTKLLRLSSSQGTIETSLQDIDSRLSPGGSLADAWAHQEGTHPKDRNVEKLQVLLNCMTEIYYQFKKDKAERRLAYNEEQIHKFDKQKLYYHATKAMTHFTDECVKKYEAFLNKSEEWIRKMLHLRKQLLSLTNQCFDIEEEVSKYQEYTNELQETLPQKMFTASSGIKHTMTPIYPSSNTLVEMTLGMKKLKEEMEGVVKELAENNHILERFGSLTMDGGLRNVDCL
The assay can be described thus: TBK biochemical assay. As to the method:
as §1
add 75 nl DMSO/well into columns 1, 2 and 24 using Labcyte Echo. add 75 nl 1.0 mM staurosporine/well into column 23 using Labcyte Echo ([…]) add 4.5 ul enzyme/well using multidrop dispenser add 3 ul substrate/well using multidrop dispenser incubate at 25° C. in Heidolph incubator for 90 min. add 7.5 ul 2× stop buffer using multidrop dispenser read on labchip ez reader II using TBK1.job
as §2

[1] abbreviates: 10 point 1:4 dose response, read-out: IKKε_IC50.
[2] abbreviates: 10 point 1:4 dose response, 30 uM top concentration, 90 min at 25° C., LabChip EZ Reader II, read-out: TBK1_IC50.

Regarding `COc1nc(Nc2nccc(-c3ccc(OC4CCOCC4)c(C#N)c3)n2)ccc1C(=O)NCCO` [Example 2, 6-([4-[3-cyano-4-(oxan-4-yloxy)phenyl]pyrimidin-2-yl]amino)-N-(2-hydroxyethyl)-2-methoxypyridine-3-carboxamide], the IC50 on IKKε (setting [1]) and at TBK1 (setting [2]) was less than 0.1 µM each time. As for `COc1cc(Nc2nccc(-c3ccc(OC4CCN(C(=O)C(C)O)CC4(F)F)c(C#N)c3)n2)ccn1` (stereo in doubt) [Example 327, 2-([3,3-difluoro-1-[(2S)-2-hydroxypropanoyl]piperidin-4-yl]oxy)-5-[2-[(2-methoxypyridin-4-yl)amino]pyrimidin-4-yl]benzonitrile], the IC50 on IKKε (setting [1]) and at TBK1 (setting [2]) was less than 0.1 µM each time. Consider `COc1nc(Nc2nccc(-c3ccc(OC4CCN(C(=O)[C@H](C)O)CC4(F)F)c(C#N)c3)n2)ccc1N1CCN(C)CC1` (stereo partly drawn) [Example 107, 2-[3,3-Difluoro-1-((S)-2-hydroxy-propionyl)-piperidin-4-yloxy]-5-{2-[6-methoxy-5-(4-methyl-piperazin-1-yl)-pyridin-2-ylamino]-pyrimidin-4-yl}-benzonitrile], for which the IC50 on IKKε (setting [1]) and on TBK1 (setting [2]) was less than 0.1 µM in each case.

On to `COc1cc(Nc2nccc(-c3cc(C#N)c(OC4CCOCC4)cn3)n2)ncc1C(=O)N(C)C` [Example 51, 6-([4-[4-cyano-5-(oxan-4-yloxy)pyridin-2-yl]pyrimidin-2-yl]amino)-4-methoxy-N,N-dimethylpyridine-3-carboxamide], for which the IC50 on IKKε (setting [1]) and at TBK1 (setting [2]) was more than 5 µM each time. Regarding `CN(C)C(=O)c1ccc(Nc2nccc(-c3ccc(OC4CCOCC4)c(C#N)n3)n2)cn1` [Example 28, 5-([4-[6-cyano-5-(oxan-4-yloxy)pyridin-2-yl]pyrimidin-2-yl]amino)-N,N-dimethylpyridine-2-carboxamide], the IC50 on IKKε (setting [1]) and at TBK1 (setting [2]) was less than 0.1 µM throughout.

Consider `CC[C@H](O)C(=O)N1CCC(Oc2ccc(-c3ccnc(Nc4ccc(N5CCN(C6COC6)CC5)c(OC)n4)n3)cc2C#N)C(F)(F)C1` (stereo partly drawn) [Example 258, 2-[3,3-Difluoro-1-((S)-2-hydroxy-butyryl)-piperidin-4-yloxy]-5-{2-[6-methoxy-5-(4-oxetan-3-yl-piperazin-1-yl)-pyridin-2-ylamino]-pyrimidin-4-yl}-benzonitrile], for which the IC50 at IKKε (setting [1]) and at TBK1 (setting [2]) was less than 0.1 µM in each case. For `COc1cc(Nc2nccc(-c3ccc(O[C@H]4CCN(C(=O)[C@@H](C)O)CC4(F)F)c(C#N)c3)n2)ccn1` [Example 230, 2-((S)-3,3-difluoro-1-((R)-2-hydroxypropanoyl)piperidin-4-yloxy)-5-(2-(2-methoxypyridin-4-ylamino)pyrimidin-4-yl)benzonitrile], the IC50 on IKKε (setting [1]) is less than 0.1 µM; at TBK1 (setting [2]), 0.1 to 1 µM. Regarding `COc1nc(Nc2ncc(F)c(-c3ccc(OC4CCN(C(=O)C(C)O)CC4(F)F)c(C#N)c3)n2)ccc1C1CCN(C2COC2)CC1` (stereo not shown) [Example 294, 2-{[33-difluoro-1-(2-hydroxypropanoyl)piperidin-4-yl]oxy}-5-[5-fluoro-2-({6-methoxy-5-[1-(oxetan-3-yl)piperidin-4-yl]pyridin-2-yl}amino)pyrimidin-4-yl]benzonitrile], the IC50 at IKKε (setting [1]) and on TBK1 (setting [2]) was less than 0.1 µM each time. Regarding `COc1nc(Nc2nccc(-c3ccc(OC4CCN(C(=O)c5cnco5)CC4)c(C#N)c3)n2)ccc1C(=O)N(C)C` [Example 79, 6-([4-[3-cyano-4-([1-[(1,3-oxazol-5-yl)carbonyl]piperidin-4-yl]oxy)phenyl]pyrimidin-2-yl]amino)-2-methoxy-N,N-dimethylpyridine-3-carboxamide], the IC50 at IKKε (setting [1]) and at TBK1 (setting [2]) was less than 0.1 µM throughout. Regarding `COc1nc(Nc2nccc(-c3ccc(OC4CCN(C(=O)CO)CC4)c(C#N)c3)n2)ccc1C(=O)N(C)C` [Example 73, 6-[[4-(3-cyano-4-[[1-(2-hydroxyacetyl)piperidin-4-yl]oxy]phenyl)pyrimidin-2-yl]amino]-2-methoxy-N,N-dimethylpyridine-3-carboxamide], the IC50 at IKKε (setting [1]) and at TBK1 (setting [2]) was less than 0.1 µM throughout.

As to `COc1nc(Nc2nccc(-c3ccc(OC4CCOCC4)c(C#N)c3)n2)ccc1C(=O)N1CC2CC(C1)O2` [Example 7, 5-(2-[[6-methoxy-5-([6-oxa-3-azabicyclo[3.1.1]heptan-3-yl]carbonyl)pyridin-2-yl]amino]pyrimidin-4-yl)-2-(oxan-4-yloxy)benzonitrile], the IC50 against IKKε (IKKε_IC50, 10 point 1:4 dose response) is less than 0.1 µM; against TBK1, less than 0.1 µM. Consider `COc1nc(Nc2nccc(-c3ccc(OC4CCOCC4)c(C#N)c3)n2)ccc1N1CCN(C2COC2)CC1` [Example 169, 5-{2-[6-Methoxy-5-(4-oxetan-3-yl-piperazin-1-yl)-pyridin-2-ylamino]-pyrimidin-4-yl}-2-(tetrahydro-pyran-4-yloxy)-benzonitrile], for which the IC50 on IKKε (setting [1]) and on TBK1 (setting [2]) was less than 0.1 µM in each case. As for `COc1nc(Nc2nccc(-c3ccc(OC4CCNCC4(F)F)c(C#N)c3)n2)ccc1N1CCN(C2COC2)[C@@H](C)C1` (stereo partly drawn) [Example 123, 2-(3,3-Difluoro-piperidin-4-yloxy)-5-{2-[6-methoxy-5-((S)-3-methyl-4-oxetan-3-yl-piperazin-1-yl)-pyridin-2-ylamino]-pyrimidin-4-yl}-benzonitrile], the IC50 on IKKε (setting [1]) and on TBK1 (setting [2]) was less than 0.1 µM in each case. Consider `COc1nc(Nc2nccc(-c3ccc(O[C@H]4CCN(C)C[C@H]4F)c(C#N)c3)n2)ccc1N1CCN(C)CC1` [Example 96, 2-(((3R,4S)-3-fluoro-1-methylpiperidin-4-yl)oxy)-5-(2-((6-methoxy-5-(4-methylpiperazin-1-yl)pyridin-2-yl)amino)pyrimidin-4-yl)benzonitrile], for which the IC50 at IKKε (setting [1]) and at TBK1 (setting [2]) was less than 0.1 µM in each case. Regarding `COc1nc(Nc2nccc(-c3ccc(OC4CCN(C(=O)[C@@H](O)CO)CC4(F)F)c(C#N)c3)n2)ccc1N1CCN(C2COC2)[C@H](C)C1` (stereo partly drawn) [Example 262, 2-[1-((S)-2,3-Dihydroxy-propionyl)-3,3-difluoro-piperidin-4-yloxy]-5-{2-[6-methoxy-5-((R)-3-methyl-4-oxetan-3-yl-piperazin-1-yl)-pyridin-2-ylamino]-pyrimidin-4-yl}-benzonitrile], the IC50 on IKKε (setting [1]) and at TBK1 (setting [2]) was less than 0.1 µM each time. As to `COc1nc(Nc2nccc(-c3ccc(O[C@H]4CCN(C(=O)[C@H](C)O)CC4(F)F)c(C#N)c3)n2)ccc1N1CCN(C2COC2)CC1` [Example 121, 2-[[(4S)-3,3-difluoro-1-[(2S)-2-hydroxypropanoyl]piperidin-4-yl]oxy]-5-[2-([6-methoxy-5-[4-(oxetan-3-yl)piperazin-1-yl]pyridin-2-yl]amino)pyrimidin-4-yl]benzonitrile], the IC50 at TBK1 (setting [2]) is less than 0.1 µM.

For the origin of these results see patent US20230019491A1, “PYRIMIDINE TBK/IKKe INHIBITOR COMPOUNDS AND USES THEREOF” (Merck Patent GmbH, priority 2017, published 2023).
